In patent US9133183B2, “Imidazolidinones and analogs exhibiting anti-cancer and anti-proliferative activities” (Deciphera Pharmaceuticals, LLC, priority 2013, dated 2015):
Where two headings read alike, the source gives them in different places.

Key:
osteoclast precursors = test: Osteoclast tartrate-resistant acid phosphatase assay; assay type: cell-based; settings: Osteoclast, 7-14 days, RANKL and M-CSF
M-NFS-60 cells = test: M-NFS-60 cell proliferation assay (resazurin); assay type: cell-based; settings: 67 h incubation
Outline: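 Cells kept in medium containing 20 ng/mL mouse recombinant M-CSF. Fluorescence was read at ex 540/em 600 nm, and IC50 was fitted from percent inhibition across a range of inhibitor concentrations.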

[1] = target: unphosphorylated PDGFRβ kinase (uPDGFRβ, Seq. ID No. 3) (Homo sapiens (Human), UniProt P09619); test: Unphosphorylated PDGFRβ kinase assay (coupled pyruvate kinase/lactate dehydrogenase); assay type: biochemical; settings: enzymatic assay, ATP 500 μM
Outline: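 Construct residues 557-1106, unphosphorylated, 15.7 nM, with poly E4Y 2.5 mg/mL and 500 μM ATP, Tris pH 7.5, 1% DMSO, 30 °C. ADP coupled to NADH oxidation via PK/LDH, A340 followed 4 h; rate from 1.5-2.5 h versus no-compound control, IC50 from percent-inhibition series.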

[2] = target: unphosphorylated c-KIT kinase (uKIT, Seq. ID no. 2) (Homo sapiens (Human), UniProt P10721); test: uKit kinase assay (coupled pyruvate kinase/lactate dehydrogenase); assay type: biochemical; settings: enzymatic assay, ATP 2000 μM
Outline: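 The read-out was a continuous PK/LDH-coupled decrease in NADH absorbance at 340 nm, monitored at 30 °C over 4 h. IC50 came from % inhibition based on rates at 3–4 h. The GST-tagged unphosphorylated KIT (12 nM) was used with polyE4Y substrate, 2000 μM ATP and 10 mM Mg2+ at pH 7.5, with serially diluted compound.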

[3] = target: c-FMS kinase in THP-1 cells (Homo sapiens (Human), UniProt P07333); test: Phospho-FMS ELISA assay in THP-1 cells; assay type: cell-based
Protocol: THP-1 cells (catalog #TIB-202) were obtained from the ATCC. Briefly, cells were grown in RPMI 1640 supplemented with 10% characterized fetal bovine serum, 1% sodium pyruvate, 1% Penicillin-Streptomycin-Glutamine (PSG) and 55 uM 2-mercaptoethanol (Invitrogen, Carlsbad, Calif.) at 37 degrees Celsius, 5% CO2, 95% humidity. Cells were allowed to expand until reaching 70-95% confluency at which point they were subcultured or harvested for assay use.
A serial dilution of test compound was diluted 1:100 in assay medium (RPMI 1640 supplemented with 10% characterized fetal bovine serum) in a 96 well black clear bottom plate (Corning, Corning, N.Y.). In a separate 96 well black clear bottom plate, one hundred and fifty thousand THP-1 cells were added per well in 100 μL in assay medium. Fifty microliters of diluted compound was then added to the cells. Plates were incubated for 4 hours at 37 degrees Celsius, 5% CO2, 95% humidity. At the end of the incubation period, cells were stimulated with 50 μL of a 100 nM solution of recombinant human M-CSF (catalog #216-MC, R & D Systems, Minneapolis, Minn.) in assay medium and the plate was incubated for 5 minutes at 37 degrees Celsius, 5% CO2, 95% humidity. Lysates were prepared and used to perform the phospho-FMS ELISA as described by the manufacturer (catalog #DYC3268, R & D Systems, Minneapolis, Minn.). GraphPad Prism was used to calculate IC50 values obtained from data generated from the ELISA assay.

[4] = target: unphosphorylated c-FMS kinase (uFMS, Seq. ID no. 1) (Homo sapiens (Human), UniProt P07333); test: uFMS kinase assay (ADP production coupled to pyruvate kinase/lactate dehydrogenase); assay type: biochemical
Outline: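 Unphosphorylated FMS (10 nM) with polyE4Y 1 mg/mL and 500 μM ATP in 90 mM Tris pH 7.5, 10 mM MgCl2, 0.2% octyl-glucoside, 1% DMSO. ADP formation was coupled via pyruvate kinase/LDH to NADH oxidation, followed at A340 for 4 h at 30° C.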

cMET kinase = cMET kinase (Homo sapiens (Human), UniProt P08581); test: cMET kinase inhibition (Table 4); assay type: biochemical
KDR kinase = KDR kinase (Homo sapiens (Human), UniProt P35968); test: KDR kinase inhibition (Table 4); assay type: biochemical
[5] = uFMS, enzymatic assay, ATP 500 μM
[6] = 4 h compound, M-CSF stimulation 5 min, read-out: pFMS inhibition in THP-1 cells
[7] = enzymatic assay, ATP 500 μM, read-out: uFMS

c-FMS kinase in THP-1 cells, sequence (P07333 20-972): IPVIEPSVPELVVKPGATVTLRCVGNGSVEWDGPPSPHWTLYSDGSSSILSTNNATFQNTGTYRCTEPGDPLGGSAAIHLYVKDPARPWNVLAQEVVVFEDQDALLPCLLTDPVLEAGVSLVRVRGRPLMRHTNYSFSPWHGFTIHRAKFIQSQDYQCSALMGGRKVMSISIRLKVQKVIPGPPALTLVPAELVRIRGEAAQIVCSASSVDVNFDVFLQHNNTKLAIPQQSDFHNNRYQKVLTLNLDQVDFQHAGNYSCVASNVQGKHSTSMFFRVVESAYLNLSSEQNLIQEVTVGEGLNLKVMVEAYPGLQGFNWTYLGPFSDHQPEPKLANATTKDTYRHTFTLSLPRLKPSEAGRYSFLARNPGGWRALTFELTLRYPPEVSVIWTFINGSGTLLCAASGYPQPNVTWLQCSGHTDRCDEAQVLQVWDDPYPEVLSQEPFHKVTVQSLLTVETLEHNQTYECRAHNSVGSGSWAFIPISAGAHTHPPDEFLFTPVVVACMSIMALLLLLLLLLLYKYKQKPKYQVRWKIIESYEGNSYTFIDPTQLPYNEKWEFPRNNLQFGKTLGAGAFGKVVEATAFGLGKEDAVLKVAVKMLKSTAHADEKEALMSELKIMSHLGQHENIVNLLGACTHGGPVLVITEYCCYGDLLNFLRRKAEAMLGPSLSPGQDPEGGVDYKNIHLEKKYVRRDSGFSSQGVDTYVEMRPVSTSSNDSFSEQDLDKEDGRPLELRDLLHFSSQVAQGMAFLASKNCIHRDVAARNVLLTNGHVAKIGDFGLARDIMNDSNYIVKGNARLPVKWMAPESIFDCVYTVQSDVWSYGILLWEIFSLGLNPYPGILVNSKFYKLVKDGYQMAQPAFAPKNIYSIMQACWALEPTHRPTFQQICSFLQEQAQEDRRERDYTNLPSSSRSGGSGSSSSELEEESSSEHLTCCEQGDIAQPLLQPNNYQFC
unphosphorylated c-KIT kinase (uKIT, Seq. ID no. 2), sequence (P10721 other isoform, or with tags, fused parts or gaps): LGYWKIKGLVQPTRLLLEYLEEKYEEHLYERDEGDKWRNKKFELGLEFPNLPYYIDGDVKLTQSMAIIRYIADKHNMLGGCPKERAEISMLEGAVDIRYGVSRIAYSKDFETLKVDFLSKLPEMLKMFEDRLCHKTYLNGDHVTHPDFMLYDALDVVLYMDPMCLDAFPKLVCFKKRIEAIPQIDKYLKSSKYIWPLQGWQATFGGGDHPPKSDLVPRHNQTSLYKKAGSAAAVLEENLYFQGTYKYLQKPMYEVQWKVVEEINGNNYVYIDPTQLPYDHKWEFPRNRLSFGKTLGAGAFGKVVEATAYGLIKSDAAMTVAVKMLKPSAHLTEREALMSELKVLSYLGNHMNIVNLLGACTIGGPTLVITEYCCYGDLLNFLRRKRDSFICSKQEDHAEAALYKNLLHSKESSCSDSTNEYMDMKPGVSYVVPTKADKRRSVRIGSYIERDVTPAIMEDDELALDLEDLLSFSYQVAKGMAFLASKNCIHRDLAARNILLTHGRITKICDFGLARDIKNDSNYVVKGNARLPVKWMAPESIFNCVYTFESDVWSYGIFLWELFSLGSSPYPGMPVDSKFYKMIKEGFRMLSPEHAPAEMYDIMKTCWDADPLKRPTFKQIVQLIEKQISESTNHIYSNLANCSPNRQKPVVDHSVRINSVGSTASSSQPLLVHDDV
cMET kinase, sequence (P08581 25-1390): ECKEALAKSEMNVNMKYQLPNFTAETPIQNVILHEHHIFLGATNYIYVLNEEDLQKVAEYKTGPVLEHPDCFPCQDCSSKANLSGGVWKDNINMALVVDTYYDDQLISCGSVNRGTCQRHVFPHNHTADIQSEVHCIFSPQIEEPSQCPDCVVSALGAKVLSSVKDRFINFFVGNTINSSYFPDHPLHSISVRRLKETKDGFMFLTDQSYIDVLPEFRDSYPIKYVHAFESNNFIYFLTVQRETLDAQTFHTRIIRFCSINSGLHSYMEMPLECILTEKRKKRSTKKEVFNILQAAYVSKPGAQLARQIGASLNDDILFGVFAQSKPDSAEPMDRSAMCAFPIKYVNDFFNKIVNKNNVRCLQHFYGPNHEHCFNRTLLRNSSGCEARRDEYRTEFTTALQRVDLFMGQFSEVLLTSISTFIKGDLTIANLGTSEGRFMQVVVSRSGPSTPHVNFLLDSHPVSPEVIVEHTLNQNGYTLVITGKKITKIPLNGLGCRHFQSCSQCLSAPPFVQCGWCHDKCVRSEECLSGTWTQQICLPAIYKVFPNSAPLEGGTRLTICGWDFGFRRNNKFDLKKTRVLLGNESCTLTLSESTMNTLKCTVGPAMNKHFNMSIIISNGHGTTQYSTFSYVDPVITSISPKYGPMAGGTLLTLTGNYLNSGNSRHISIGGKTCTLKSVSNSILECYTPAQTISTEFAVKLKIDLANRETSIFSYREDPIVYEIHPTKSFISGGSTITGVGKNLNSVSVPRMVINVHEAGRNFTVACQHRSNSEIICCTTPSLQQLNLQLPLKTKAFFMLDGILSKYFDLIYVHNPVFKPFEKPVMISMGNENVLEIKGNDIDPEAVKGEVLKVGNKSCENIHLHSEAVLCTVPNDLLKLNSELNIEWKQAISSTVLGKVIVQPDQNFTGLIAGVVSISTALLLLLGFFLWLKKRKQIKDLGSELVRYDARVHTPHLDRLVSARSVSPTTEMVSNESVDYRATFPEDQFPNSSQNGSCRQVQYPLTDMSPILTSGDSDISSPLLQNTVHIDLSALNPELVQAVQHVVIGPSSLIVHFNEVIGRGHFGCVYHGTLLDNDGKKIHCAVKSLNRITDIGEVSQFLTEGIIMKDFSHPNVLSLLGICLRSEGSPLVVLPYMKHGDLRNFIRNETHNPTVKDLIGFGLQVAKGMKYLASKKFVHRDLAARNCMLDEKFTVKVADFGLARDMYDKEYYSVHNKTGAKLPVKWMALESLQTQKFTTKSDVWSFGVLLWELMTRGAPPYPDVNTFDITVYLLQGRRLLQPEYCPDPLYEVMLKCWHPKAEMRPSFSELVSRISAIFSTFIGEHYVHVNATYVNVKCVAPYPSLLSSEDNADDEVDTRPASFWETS
KDR kinase, sequence (P35968 20-1356): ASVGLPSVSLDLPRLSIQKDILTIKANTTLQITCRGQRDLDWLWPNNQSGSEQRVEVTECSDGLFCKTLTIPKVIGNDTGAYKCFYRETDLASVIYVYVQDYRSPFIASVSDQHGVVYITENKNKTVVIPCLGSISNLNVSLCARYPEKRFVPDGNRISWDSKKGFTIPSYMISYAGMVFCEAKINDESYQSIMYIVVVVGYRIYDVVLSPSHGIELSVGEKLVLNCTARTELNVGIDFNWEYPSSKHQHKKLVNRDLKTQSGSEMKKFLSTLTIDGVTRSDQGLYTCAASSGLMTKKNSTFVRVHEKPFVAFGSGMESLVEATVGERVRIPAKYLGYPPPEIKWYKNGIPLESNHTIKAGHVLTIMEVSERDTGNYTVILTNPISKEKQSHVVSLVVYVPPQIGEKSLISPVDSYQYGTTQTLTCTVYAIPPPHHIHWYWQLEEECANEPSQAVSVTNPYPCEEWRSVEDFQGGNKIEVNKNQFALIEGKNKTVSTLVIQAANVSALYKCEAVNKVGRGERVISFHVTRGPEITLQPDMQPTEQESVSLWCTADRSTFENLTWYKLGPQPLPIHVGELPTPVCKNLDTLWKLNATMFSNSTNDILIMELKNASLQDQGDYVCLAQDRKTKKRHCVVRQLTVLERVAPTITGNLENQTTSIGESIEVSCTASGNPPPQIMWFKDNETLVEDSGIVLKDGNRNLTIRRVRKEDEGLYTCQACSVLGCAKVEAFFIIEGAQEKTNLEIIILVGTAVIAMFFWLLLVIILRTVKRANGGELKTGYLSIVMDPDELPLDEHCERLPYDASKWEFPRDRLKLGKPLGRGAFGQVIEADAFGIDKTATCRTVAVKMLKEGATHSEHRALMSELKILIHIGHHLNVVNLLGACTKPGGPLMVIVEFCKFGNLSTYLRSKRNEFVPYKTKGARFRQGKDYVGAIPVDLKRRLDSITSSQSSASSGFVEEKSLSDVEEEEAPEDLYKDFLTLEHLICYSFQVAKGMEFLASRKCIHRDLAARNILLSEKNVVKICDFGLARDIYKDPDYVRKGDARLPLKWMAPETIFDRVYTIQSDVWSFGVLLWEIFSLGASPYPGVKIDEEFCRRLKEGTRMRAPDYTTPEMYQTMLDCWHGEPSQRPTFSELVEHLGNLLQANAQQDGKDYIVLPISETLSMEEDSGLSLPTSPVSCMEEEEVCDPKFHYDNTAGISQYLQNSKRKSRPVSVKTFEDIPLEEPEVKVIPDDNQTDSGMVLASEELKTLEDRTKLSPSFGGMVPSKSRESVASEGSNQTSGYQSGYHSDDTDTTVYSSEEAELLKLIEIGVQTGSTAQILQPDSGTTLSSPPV
unphosphorylated c-FMS kinase (uFMS, Seq. ID no. 1), sequence (P07333 538-972): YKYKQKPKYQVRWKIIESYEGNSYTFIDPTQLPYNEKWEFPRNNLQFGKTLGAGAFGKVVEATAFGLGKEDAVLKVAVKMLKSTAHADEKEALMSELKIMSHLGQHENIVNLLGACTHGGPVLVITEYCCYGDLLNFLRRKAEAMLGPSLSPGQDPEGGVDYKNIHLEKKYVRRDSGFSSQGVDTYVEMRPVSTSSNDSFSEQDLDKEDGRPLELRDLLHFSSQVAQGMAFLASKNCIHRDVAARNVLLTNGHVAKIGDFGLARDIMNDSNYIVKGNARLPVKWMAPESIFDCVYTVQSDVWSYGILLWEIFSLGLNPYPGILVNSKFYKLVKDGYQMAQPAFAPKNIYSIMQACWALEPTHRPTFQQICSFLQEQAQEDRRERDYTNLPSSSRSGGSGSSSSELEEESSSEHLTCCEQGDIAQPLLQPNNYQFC

SMILES	IC50 (osteoclast precursors) [nM]	IC50 (M-NFS-60 cells) [nM]	IC50 [1] [nM]	IC50 [2] [nM]	IC50 [3] [nM]	IC50 [4, 5] [nM]	IC50 [3, 6] [nM]	IC50 [4, 7] [nM]	IC50 (cMET kinase) [nM]	IC50 (KDR kinase) [nM]	IC50 ([4]; Table 4, read-out: c-FMS IC50) [nM]
Cc1nc(NC(=O)N2CCN(C3CCOC3)C2=O)ccc1Oc1ccnc(-c2cnn(C)c2)c1 (stereo in doubt) [Example 23, (S)—N-(6-methyl-5-((2-(1-methyl-1H-pyrazol-4-yl)pyridin-4-yl)oxy)pyridin-2-yl)-2-oxo-3-(tetrahydrofuran-3-yl)imidazolidine-1-carboxamide]	10 to 100	10 to 100	> 1000	> 1000	10 to 100	10 to 100	–	–	–	–	–
O=C(Nc1ccc(Oc2ccnc(-c3cn[nH]c3)c2)cn1)N1CCN(C2CCOCC2)C1=O [Example 5, N-(5-((2-(1H-pyrazol-4-yl)pyridin-4-yl)oxy)pyridin-2-yl)-2-oxo-3-(tetrahydro-2H-pyran-4-yl)imidazolidine-1-carboxamide]	10 to 100	10 to 100	100 to 1000	–	100 to 1000	10 to 100	–	–	–	–	–
Cc1cc(-c2cc(Oc3ccc(NC(=O)N4CCN(C5CCOCC5)C4=O)nc3C)ccn2)on1 [Example 14, N-(6-methyl-5-((2-(3-methylisoxazol-5-yl)pyridin-4-yl)oxy)pyridin-2-yl)-2-oxo-3-(tetrahydro-2H-pyran-4-yl)imidazolidine-1-carboxamide]	10 to 100	100 to 1000	> 1000	–	–	–	100 to 1000	10 to 100	–	–	–
Cn1cc(-c2cc(Oc3ccc(NC(=O)N4CCN(C5CCCCC5)C4=O)nc3)ccn2)cn1 [Example 15, 3-cyclohexyl-N-(5-((2-(1-methyl-1H-pyrazol-4-yl)pyridin-4-yl)oxy)pyridin-2-yl)-2-oxoimidazolidine-1-carboxamide]	< 10	< 10	10 to 100	–	–	–	10 to 100	< 10	370	670	3
[2H]C([2H])([2H])n1cc(-c2cc(Oc3ccc(NC(=O)N4CCN([C@@H]5CCOC5)C4=O)nc3C)ccn2)cn1 [Example 37, (R)—N-(6-methyl-5-((2-(1-(trideuteromethyl)-1H-pyrazol-4-yl)pyridin-4-yl)oxy)pyridin-2-yl)-2-oxo-3-(tetrahydrofuran-3-yl)imidazolidine-1-carboxamide]	10 to 100	10 to 100	> 1000	100 to 1000	10 to 100	10 to 100	–	–	–	–	–
CNC(=O)c1cc(Oc2ccc(NC(=O)N3CCN(C(C)(C)C)C3=O)nc2)ccn1 [Example 90, 4-((6-(3-(tert-butyl)-2-oxoimidazolidine-1-carboxamido)pyridin-3-yl)oxy)-N-methylpicolinamide]	10 to 100	10 to 100	10 to 100	10 to 100	–	–	–	< 10	> 5000	3300	5
Cn1cc(-c2cc(Oc3cc(F)c(NC(=O)N4CCN(C5CCOCC5)C4=O)cc3F)ccn2)cn1 [Example 91, N-(2,5-difluoro-4-((2-(1-methyl-1H-pyrazol-4-yl)pyridin-4-yl)oxy)phenyl)-2-oxo-3-(tetrahydro-2H-pyran-4-yl)imidazolidine-1-carboxamide]	10 to 100	10 to 100	–	100 to 1000	–	–	10 to 100	< 10	> 5000	> 3300	7
Cn1cc(-c2cc(Oc3cc(F)c(NC(=O)N4CCN(C5CCOCC5)C4=O)cc3Cl)ccn2)cn1 [Example 92, N-(5-chloro-2-fluoro-4-((2-(1-methyl-1H-pyrazol-4-yl)pyridin-4-yl)oxy)phenyl)-2-oxo-3-(tetrahydro-2H-pyran-4-yl)imidazolidine-1-carboxamide]	10 to 100	10 to 100	–	10 to 100	–	–	10 to 100	< 10	–	–	–
CN(C)C(=O)Nc1cc(Oc2cc(F)c(NC(=O)N3CCN(C4CCOCC4)C3=O)cc2Cl)ccn1 [Example 101, N-(5-chloro-4-((2-(3,3-dimethylureido)pyridin-4-yl)oxy)-2-fluorophenyl)-2-oxo-3-(tetrahydro-2H-pyran-4-yl)imidazolidine-1-carboxamide]	< 10	10 to 100	100 to 1000	–	–	–	10 to 100	< 10	4000	> 3300	8
